In US10167262B2, “Herbicidal substituted 3-arylpyrazoles” (FMC CORPORATION, priority 2014, dated 2019):

system: barnyardgrass (Echinochloa crus-galli); experiment: Test A pre-/postemergence greenhouse herbicide test, visual injury rating 0-100; assay type: in vivo; details: Postemergence, 125 g ai/ha
Method in brief: (§1)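 Seeds planted in loam-sand blend; preemergence directed soil spray and postemergence spray at 2–10 cm, one- to two-leaf stage, compounds formulated in non-phytotoxic solvent with surfactant. After about 10 days in greenhouse, injury rated visually against untreated controls, 0 (no effect) to 100 (complete control).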

Row | Structure (SMILES) | Plant response rating (0 to 100 scale), Barnyardgrass
1 | CCn1cc(C(=O)c2cccnc2)c(-c2cc(Cl)cc(Cl)c2)n1 [Compound 7] | 0

same assay, conditions: Postemergence, 500 g ai/ha

Row | Structure (SMILES) | Plant response rating (0 to 100 scale), Barnyardgrass
2 | CCn1cc(C(=O)c2cccnc2)c(-c2cc(Cl)cc(Cl)c2)n1 [Compound 7] | 0

same assay, conditions: Preemergence, 125 g ai/ha

Row | Structure (SMILES) | Barnyardgrass plant response rating (0 = no effect, 100 = complete control)
3 | CCn1cc(C(=O)c2cccnc2)c(-c2cc(Cl)cc(Cl)c2)n1 [Compound 7] | 0

same assay, conditions: Preemergence, 500 g ai/ha

Row | Structure (SMILES) | Plant response rating (0 to 100 scale), Barnyardgrass
4 | CCn1cc(C(=O)c2cccnc2)c(-c2cc(Cl)cc(Cl)c2)n1 [Compound 7] | 0

system: pigweed (Amaranthus retroflexus); experiment: as above; assay type: in vivo; details: Postemergence, 125 g ai/ha
Method in brief: as §1

Row | Structure (SMILES) | Plant response rating (0 to 100 scale), Pigweed
5 | CCn1cc(C(=O)c2cccnc2)c(-c2cc(Cl)cc(Cl)c2)n1 [Compound 7] | 40

same assay, conditions: Postemergence, 500 g ai/ha

Row | Structure (SMILES) | Plant response rating (0 to 100 scale), Pigweed
6 | CCn1cc(C(=O)c2cccnc2)c(-c2cc(Cl)cc(Cl)c2)n1 [Compound 7] | 70

same assay, conditions: Preemergence, 125 g ai/ha

Row | Structure (SMILES) | Pigweed plant response rating (0 = no effect, 100 = complete control)
7 | CCn1cc(C(=O)c2cccnc2)c(-c2cc(Cl)cc(Cl)c2)n1 [Compound 7] | 20

same assay, conditions: Preemergence, 500 g ai/ha

Row | Structure (SMILES) | Plant response rating (0 to 100 scale), Pigweed
8 | CCn1cc(C(=O)c2cccnc2)c(-c2cc(Cl)cc(Cl)c2)n1 [Compound 7] | 60

system: wheat (Triticum aestivum); experiment: as above; assay type: in vivo; details: Postemergence, 125 g ai/ha
Method in brief: as §1

Row | Structure (SMILES) | Plant response rating (0 to 100 scale), Wheat
9 | CCn1cc(C(=O)c2cccnc2)c(-c2cc(Cl)cc(Cl)c2)n1 [Compound 7] | 0

same assay, conditions: Postemergence, 500 g ai/ha

Row | Structure (SMILES) | Plant response rating (0 to 100 scale), Wheat
10 | CCn1cc(C(=O)c2cccnc2)c(-c2cc(Cl)cc(Cl)c2)n1 [Compound 7] | 0

same assay, conditions: Preemergence, 125 g ai/ha

Row | Structure (SMILES) | Wheat plant response rating (0 = no effect, 100 = complete control)
11 | CCn1cc(C(=O)c2cccnc2)c(-c2cc(Cl)cc(Cl)c2)n1 [Compound 7] | 0

same assay, conditions: Preemergence, 500 g ai/ha

Row | Structure (SMILES) | Plant response rating (0 to 100 scale), Wheat
12 | CCn1cc(C(=O)c2cccnc2)c(-c2cc(Cl)cc(Cl)c2)n1 [Compound 7] | 0

system: corn (Zea mays); experiment: as above; assay type: in vivo; details: Postemergence, 125 g ai/ha
Method in brief: as §1

Row | Structure (SMILES) | Plant response rating (0 to 100 scale), Corn
13 | CCn1cc(C(=O)c2cccnc2)c(-c2cc(Cl)cc(Cl)c2)n1 [Compound 7] | 0

same assay, conditions: Postemergence, 500 g ai/ha

Row | Structure (SMILES) | Plant response rating (0 to 100 scale), Corn
14 | CCn1cc(C(=O)c2cccnc2)c(-c2cc(Cl)cc(Cl)c2)n1 [Compound 7] | 0

same assay, conditions: Preemergence, 125 g ai/ha

Row | Structure (SMILES) | Corn plant response rating (0 = no effect, 100 = complete control)
15 | CCn1cc(C(=O)c2cccnc2)c(-c2cc(Cl)cc(Cl)c2)n1 [Compound 7] | 0

same assay, conditions: Preemergence, 500 g ai/ha

Row | Structure (SMILES) | Plant response rating (0 to 100 scale), Corn
16 | CCn1cc(C(=O)c2cccnc2)c(-c2cc(Cl)cc(Cl)c2)n1 [Compound 7] | 0

system: morningglory (Ipomoea spp.); experiment: as above; assay type: in vivo; details: Postemergence, 125 g ai/ha
Method in brief: as §1

Row | Structure (SMILES) | Plant response rating (0 to 100 scale), Morningglory
17 | CCn1cc(C(=O)c2cccnc2)c(-c2cc(Cl)cc(Cl)c2)n1 [Compound 7] | 0

same assay, conditions: Postemergence, 500 g ai/ha

Row | Structure (SMILES) | Plant response rating (0 to 100 scale), Morningglory
18 | CCn1cc(C(=O)c2cccnc2)c(-c2cc(Cl)cc(Cl)c2)n1 [Compound 7] | 0

same assay, conditions: Preemergence, 125 g ai/ha

Row | Structure (SMILES) | Morningglory plant response rating (0 = no effect, 100 = complete control)
19 | CCn1cc(C(=O)c2cccnc2)c(-c2cc(Cl)cc(Cl)c2)n1 [Compound 7] | 0

same assay, conditions: Preemergence, 500 g ai/ha

Row | Structure (SMILES) | Plant response rating (0 to 100 scale), Morningglory
20 | CCn1cc(C(=O)c2cccnc2)c(-c2cc(Cl)cc(Cl)c2)n1 [Compound 7] | 0

system: velvetleaf (Abutilon theophrasti); experiment: as above; assay type: in vivo; details: Postemergence, 125 g ai/ha
Method in brief: as §1

Row | Structure (SMILES) | Plant response rating (0 to 100 scale), Velvetleaf
21 | CCn1cc(C(=O)c2cccnc2)c(-c2cc(Cl)cc(Cl)c2)n1 [Compound 7] | 50

same assay, conditions: Postemergence, 500 g ai/ha

Row | Structure (SMILES) | Plant response rating (0 to 100 scale), Velvetleaf
22 | CCn1cc(C(=O)c2cccnc2)c(-c2cc(Cl)cc(Cl)c2)n1 [Compound 7] | 70

same assay, conditions: Preemergence, 125 g ai/ha

Row | Structure (SMILES) | Velvetleaf plant response rating (0 = no effect, 100 = complete control)
23 | CCn1cc(C(=O)c2cccnc2)c(-c2cc(Cl)cc(Cl)c2)n1 [Compound 7] | 0

same assay, conditions: Preemergence, 500 g ai/ha

Row | Structure (SMILES) | Plant response rating (0 to 100 scale), Velvetleaf
24 | CCn1cc(C(=O)c2cccnc2)c(-c2cc(Cl)cc(Cl)c2)n1 [Compound 7] | 50

system: giant foxtail (Setaria faberii); experiment: as above; assay type: in vivo; details: Postemergence, 125 g ai/ha
Method in brief: as §1

Row | Structure (SMILES) | Plant response rating (0 to 100 scale), Foxtail, Giant
25 | CCn1cc(C(=O)c2cccnc2)c(-c2cc(Cl)cc(Cl)c2)n1 [Compound 7] | 0

same assay, conditions: Postemergence, 500 g ai/ha

Row | Structure (SMILES) | Plant response rating (0 to 100 scale), Foxtail, Giant
26 | CCn1cc(C(=O)c2cccnc2)c(-c2cc(Cl)cc(Cl)c2)n1 [Compound 7] | 0

same assay, conditions: Preemergence, 125 g ai/ha

Row | Structure (SMILES) | Foxtail, Giant plant response rating (0 = no effect, 100 = complete control)
27 | CCn1cc(C(=O)c2cccnc2)c(-c2cc(Cl)cc(Cl)c2)n1 [Compound 7] | 0

same assay, conditions: Preemergence, 500 g ai/ha

Row | Structure (SMILES) | Plant response rating (0 to 100 scale), Foxtail, Giant
28 | CCn1cc(C(=O)c2cccnc2)c(-c2cc(Cl)cc(Cl)c2)n1 [Compound 7] | 0

system: large (Lg) crabgrass (Digitaria sanguinalis); experiment: as above; assay type: in vivo; details: Postemergence, 125 g ai/ha
Method in brief: as §1

Row | Structure (SMILES) | Plant response rating (0 to 100 scale), Crabgrass, Large
29 | CCn1cc(C(=O)c2cccnc2)c(-c2cc(Cl)cc(Cl)c2)n1 [Compound 7] | 0

same assay, conditions: Postemergence, 500 g ai/ha

Row | Structure (SMILES) | Plant response rating (0 to 100 scale), Crabgrass, Large
30 | CCn1cc(C(=O)c2cccnc2)c(-c2cc(Cl)cc(Cl)c2)n1 [Compound 7] | 0

same assay, conditions: Preemergence, 125 g ai/ha

Row | Structure (SMILES) | Crabgrass, Large plant response rating (0 = no effect, 100 = complete control)
31 | CCn1cc(C(=O)c2cccnc2)c(-c2cc(Cl)cc(Cl)c2)n1 [Compound 7] | 0

same assay, conditions: Preemergence, 500 g ai/ha

Row | Structure (SMILES) | Plant response rating (0 to 100 scale), Crabgrass, Large
32 | CCn1cc(C(=O)c2cccnc2)c(-c2cc(Cl)cc(Cl)c2)n1 [Compound 7] | 0

system: sedge, umbrella (small-flower umbrella sedge, Cyperus difformis); experiment: Test B flooded paddy test, plant response rating 0-100; assay type: in vivo; details: Flood, 250 g ai/ha; scale 0 to 100 (0 no effect, 100 complete control); 13 to 15 days
Text: (§2) At time of treatment, test pots were flooded to 3 cm above the soil surface, treated by application of test compounds directly to the paddy water, and then maintained at that water depth for the duration of the test. Treated plants and controls were maintained in a greenhouse for 13 to 15 days, after which time all species were compared to controls and visually evaluated. […] A dash (-) response means no test result.

Row | Structure (SMILES) | Plant response rating, Sedge, Umbrella
33 | CCn1cc(C(=O)c2cccnc2)c(-c2cc(Cl)cc(Cl)c2)n1 [Compound 7] | 0

system: barnyardgrass (Echinochloa crus-galli); experiment: as above; assay type: in vivo; details: Flood, 250 g ai/ha; scale 0 to 100 (0 no effect, 100 complete control); 13 to 15 days
Text: as §2

Row | Structure (SMILES) | Plant response rating, Barnyardgrass
34 | CCn1cc(C(=O)c2cccnc2)c(-c2cc(Cl)cc(Cl)c2)n1 [Compound 7] | 0

system: ducksalad (Heteranthera limosa); experiment: as above; assay type: in vivo; details: Flood, 250 g ai/ha; scale 0 to 100 (0 no effect, 100 complete control); 13 to 15 days
Text: as §2

Row | Structure (SMILES) | Plant response rating, Ducksalad
35 | CCn1cc(C(=O)c2cccnc2)c(-c2cc(Cl)cc(Cl)c2)n1 [Compound 7] | 0

system: rice (Oryza sativa); experiment: as above; assay type: in vivo; details: Flood, 250 g ai/ha; scale 0 to 100 (0 no effect, 100 complete control); 13 to 15 days
Text: as §2

Row | Structure (SMILES) | Plant response rating, Rice
36 | CCn1cc(C(=O)c2cccnc2)c(-c2cc(Cl)cc(Cl)c2)n1 [Compound 7] | 0
